{"source": "patent US20100152102A1", "about": "“USE OF SO[…] ONE OF ITS ANALOGUES FOR PREPARING A […] TO REGULATE THE OVARIAN […] IN NON-[…]” (Preglem S.A., priority 2003, published 2010)", "key": {"[1]": {"system": "primordial follicles of ewe ovarian cortex", "assay": "culture of ovarian cortex fragments of adult ewes for 10 days", "type": "cell-based", "conditions": "10 days culture; for start of growth of the primordial follicles: vs control (FIG. 3)", "protocol": "Ovaries of adult ewes are collected immediately after slaughter. The ovaries are placed in an organ transport medium without serum (X-vivo, Bio Whittaker, Walkersville, Md., USA) at 10° C. and transported to the laboratory. Approximately 1 h after removal, the cortex is isolated from the medulla then fractionated into slices of 2 mm thickness (1 cm^2, average weight of 212 mg) after rinsing in new X-vivo. The cortex fragments are cultured in an oven under 5% oxygen for 10 days in well plates in the presence of DMEM. The medium is changed every 2 days.\nThe procedure used is the same as for Example 1, except that the somatostatin is replaced with one of its agonist analogues, namely the synthetic peptide of formula c[Tic-Tyr-DTrp-Lys-Abu-Phe] (hereafter AG1 peptide).\nThe procedure used is the same as for Example 1, except that the somatostatin is replaced by one of its antagonist analogues, namely the synthetic peptide of formula Cpa-c(DCys-3-Pal-DTrp-NMeLys-Thr-Cys)-2-Nal-NH2 (hereafter ANT1 peptide)."}, "antral follicles": {"system": "antral follicles", "assay": "envisaged case: patient with polycystic ovary syndrome treated with lanreotide acetate", "type": "in vivo, women", "conditions": "120 mg/month, 4th month of treatment"}}, "note": "[ ]: non-standard residue; d: D form. Tic = O=C(O)[C@@H]1Cc2ccccc2CN1; Abu = CC[C@H](N)C(=O)O", "data": [{"compound": "Cpa-c(DCys-3-Pal-DTrp-NMeLys-Thr-Cys)-2-Nal-NH2 [ANT1 peptide]", "values": [{"measurement": "start of growth of the primordial follicles", "setting": "[1]; ANT1 peptide 10^−6M, FIG. 5", "result": "accentuates"}]}, {"compound": "cyclo([Tic]Y[dW]K[Abu]F) [AG1 peptide]", "values": [{"measurement": "number of primary follicles", "setting": "[1]; AG1 peptide 10^−9M, FIG. 4", "result": "absence of increase"}, {"measurement": "number of primordial follicles", "setting": "[1]; AG1 peptide 10^−9M, FIG. 4", "result": "maintenance over time"}, {"measurement": "start of growth of the primordial follicles", "setting": "[1]; AG1 peptide 10^−9M, FIG. 4", "result": "very significantly inhibits"}]}, {"compound": "CC(C)[C@@H]1NC(=O)[C@H](CCCCN)NC(=O)[C@@H](Cc2c[nH]c3ccccc23)NC(=O)[C@H](Cc2ccc(O)cc2)NC(=O)[C@@H](NC(=O)[C@H](N)Cc2ccc3ccccc3c2)CSSC[C@@H](C(=O)N[C@H](C(N)=O)[C@@H](C)O)NC1=O", "note": "[lanreotide acetate]", "values": [{"measurement": "ultrasound of the ovaries: ovarian volume and number of antral follicles", "setting": "antral follicles", "result": "reduction in ovarian volume and in the number of antral follicles"}]}]}
